From PubChem BioAssay (NCI)
Values joined by “and” are separate entries in the source; they are usually repeats but may differ in a detail not shown here. Equal entries are not always repeated.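 96-well plates; 48 h exposure; 5 concentrations. Endpoints by linear interpolation between flanking doses. Not reached: highest tested concentration assigned. GI50: concentration for 50% inhibition of growth. The concentration for full growth arrest is given as TGI.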

Tests used:
Experiment in all cases: NCI-60 cell line screen, 48 h
[1] = system: 786-0 renal
[2] = system: A498 renal
[3] = system: HCC-2998 colon
[4] = system: IGROV1 ovarian
[5] = system: KM12 colon
[6] = system: M14 melanoma
[7] = system: OVCAR-4 ovarian
[8] = system: RPMI-8226 leukemia
[9] = system: TK-10 renal
[10] = system: UO-31 renal

| SMILES | TGI [1] | TGI [2] | TGI [3] | TGI [4] | TGI [5] | TGI [6] | TGI [7] | TGI [8] | TGI [9] | TGI [10] | GI50 [8] | GI50 [2] | GI50 [3] | GI50 [5] | GI50 [6] | GI50 [7] | GI50 [9] | GI50 [10] | GI50 [4] |
| --- | --- | --- | --- | --- | --- | --- | --- | --- | --- | --- | --- | --- | --- | --- | --- | --- | --- | --- | --- |
| CCCCOC(=O)C1CC[C@H]2[C@@H]3CCc4cc(OC(=O)c5cccc6c(=O)c7ccccc7[nH]c56)ccc4[C@H]3CC[C@]12C (stereo not given in full) | 17 µM | 16.7 µM | 15.8 µM | 14.9 µM | 17 µM | 20.5 µM | 14.5 µM | 20.6 µM | 14.7 µM | 14.9 µM |  |  |  |  |  |  |  |  |  |
| Cc1ccc(C2(c3ccc(F)cc3)OC(=O)c3ccccc32)c(O)c1 (stereo not given) | 32.1 µM | 36.7 µM | 38.4 µM | 34 µM | 51.6 µM | 30.1 µM | 41.1 µM | 59.8 µM | 29.6 µM | 22.4 µM |  |  |  |  |  |  |  |  |  |
| CC(Oc1ccccc1)C(=O)NNC(=O)OC(C)(C)C (stereo not given) | > 100 µM | > 100 µM | > 100 µM | > 100 µM | > 100 µM | > 100 µM | > 100 µM | > 100 µM | > 100 µM | > 100 µM |  |  |  |  |  |  |  |  |  |
| O=C(Cn1c(C(=O)c2ccccc2)nc2ccccc21)c1ccccc1 | > 100 µM | > 100 µM | > 100 µM | > 31.6 µM | > 100 µM | > 100 µM | > 100 µM | > 100 µM | > 100 µM | > 100 µM |  |  |  |  |  |  |  |  |  |
| Brc1cccc(C2ON=C(c3ccccc3)N2C23CC4CC(CC(C4)C2)C3)c1 (stereo not given) | > 10 µM | > 10 µM | > 10 µM | > 10 µM | > 10 µM | > 10 µM | > 10 µM | > 10 µM | > 10 µM | > 10 µM |  |  |  |  |  |  |  |  |  |
| CCCCCCCCCCCCCCCCNc1ccn(C2CC(O)C(COC(c3ccccc3)(c3ccccc3)c3ccc(OC)cc3)O2)c(=O)n1 (stereo not given) | > 100 µM | > 100 µM | > 100 µM | > 100 µM | > 100 µM | > 100 µM | > 100 µM | > 100 µM | > 100 µM | 53.8 µM |  |  |  |  |  |  |  |  |  |
| O=C1C(c2c(O)[nH]c3ccc(Br)cc23)=Nc2ccc(Br)cc21 | 46.9 µM | > 100 µM | > 100 µM | > 100 µM | > 100 µM | > 100 µM | > 100 µM | > 100 µM | > 100 µM | > 100 µM |  |  |  |  |  |  |  |  |  |
| Cc1nc2sc(C(=O)c3ccc(Cl)cc3)c(N)c2c(-c2ccccc2Cl)c1C(=O)Nc1ccccc1 | 27.6 µM | 48 µM | 59.9 µM | > 70.5 µM | 50 µM | 25.8 µM | 41 µM | 62.2 µM | 39.3 µM | 51.1 µM |  |  |  |  |  |  |  |  |  |
| COc1cc(OC)c2c(c1)OC(c1cccnc1)C(c1ccccc1)C2=O (stereo not given) | > 100 µM | > 100 µM | > 100 µM | > 100 µM | > 100 µM | > 100 µM | > 100 µM | > 100 µM | > 100 µM | > 100 µM |  |  |  |  |  |  |  |  |  |
| Cc1c2c(n(CC(c3ccccc3)c3ccccc3)c1C)NN=C(C#N)S2(=O)=O | > 100 µM | > 100 µM | > 100 µM | > 100 µM | > 100 µM | > 100 µM | > 100 µM | > 100 µM | > 100 µM | > 100 µM |  |  |  |  |  |  |  |  |  |
| C/C(=N\Nc1nc2ccccc2s1)c1cc2ccccc2cn1 | 9.35 µM | 29 µM | 27.2 µM | 16 µM | 94.4 µM | 23.2 µM | 62.2 µM | > 100 µM | > 100 µM | 14.8 µM |  |  |  |  |  |  |  |  |  |
| CC1(C)OC2OC(C(COS(=O)(=O)C(F)(F)F)N=[N+]=[N-])C(OC(=O)c3ccccc3)C2O1 (stereo not given) | > 100 µM | > 100 µM | > 100 µM |  | > 100 µM | > 100 µM | > 100 µM | > 100 µM | > 100 µM | > 100 µM | > 100 µM and 26.7 µM |  |  |  |  |  |  |  |  |
| Cc1ccc2c(c1)nc1n2C(N)=Nc2ccccc2S1 | > 100 µM | > 91.6 µM | > 100 µM | > 100 µM | > 100 µM | > 100 µM | > 100 µM | > 100 µM | > 100 µM | > 100 µM |  |  |  |  |  |  |  |  |  |
| CC(=O)OCC1OC(n2c(S)c(C#N)c(-c3ccccc3)c(C#N)c2=O)C(OC(C)=O)C(OC(C)=O)C1OC(C)=O (stereo not given) | > 100 µM and 83.4 µM | > 100 µM and 74 µM | > 100 µM and 32.9 µM | > 100 µM | > 100 µM and 52 µM | > 100 µM | > 100 µM and 83.3 µM | > 100 µM and 75 µM | > 100 µM and 86.5 µM | > 100 µM and 87.3 µM | > 100 µM and 35 µM | > 69 µM and 30.3 µM | > 100 µM and 18 µM | > 100 µM and 21.8 µM | > 100 µM and 36.5 µM | > 100 µM and 30.6 µM | 90.7 µM and 24.9 µM | > 68.1 µM and 29.1 µM |  |
| O=C(O)[C@H](CCC[C@H]1C(=O)O[C@H](c2ccccc2)[C@H](c2ccccc2)N1C(=O)OCc1ccccc1)N[C@@H](c1ccccc1)[C@H](O)c1ccccc1 | > 100 µM | 62.1 µM | 44 µM | > 100 µM | 40.4 µM | > 100 µM | 75.9 µM | 54 µM | > 100 µM | > 100 µM |  |  |  |  |  |  |  |  |  |
| C(#CP(c1ccccc1)c1ccccc1)P(C#CP(c1ccccc1)c1ccccc1)c1ccccc1 | > 100 µM | > 100 µM | > 100 µM | > 100 µM | > 100 µM | 13 µM | > 100 µM | > 100 µM | > 100 µM | > 100 µM |  |  |  |  |  |  |  |  |  |
| C=C=CC(NC(=O)c1ccccc1)(C(=O)O)C(F)(F)F (stereo not given) |  | > 100 µM | > 100 µM | > 100 µM | > 100 µM | > 100 µM |  | > 100 µM | > 100 µM |  |  |  |  |  |  |  |  |  |  |
| OC1(c2ccc(Cl)cc2)c2ccccc2-c2nc3ccccc3n21 (stereo not given) | > 100 µM | > 100 µM | > 100 µM | > 100 µM | > 100 µM | > 100 µM | > 100 µM | > 100 µM | > 100 µM | > 100 µM |  |  |  |  |  |  |  |  |  |
| COc1ccccc1C1(c2c(OC)c(=O)c2=O)SCCCS1 | > 100 µM | > 100 µM | > 100 µM | > 100 µM | > 100 µM | > 100 µM | > 100 µM | > 100 µM | > 100 µM | > 100 µM |  |  |  |  |  |  |  |  |  |
| CCCCCCCCCCCCCC[n+]1ccc(C)cc1 |  | 12.6 µM | 2.04 µM | 0.953 µM | 0.802 µM | 1.25 µM | 2.71 µM | 2.37 µM | 2.11 µM | 3.79 µM | 0.426 µM | 2.93 µM | 0.708 µM | 0.281 µM | 0.345 µM | 0.523 µM | 0.627 µM | 1.38 µM | 0.349 µM |
| COc1ccc(-c2c(-c3ccccc3)c(C)nc3nc(SC)nc(SC)c23)cc1OC |  | 56.9 µM | > 100 µM | > 100 µM | > 100 µM | > 100 µM |  | 26.1 µM | > 100 µM | > 100 µM |  |  |  |  |  |  |  |  |  |
| CCC(C)C1=C(O)[N+]2([O-])Oc3ccc(-c4c(O)c(O)c(-c5ccc(OC(C)=O)cc5)c(OC(C)=O)c4OC(C)=O)cc3OC2(C(C)CC)C(=O)N1O (stereo not given) | > 50 µM | > 50 µM | 41.5 µM | > 50 µM | > 50 µM | > 50 µM | 41.4 µM and 46.7 µM | > 50 µM | > 50 µM | > 50 µM |  |  |  |  |  |  |  |  |  |
| COc1cc2c(/C=C3/C(=O)N(C)c4ccc(O)cc43)c(Cl)[nH]c2cc1C | 15 µM | 5.39 µM | 0.85 µM | 19.9 µM | 6.64 µM | 13.1 µM | 21.6 µM | 4.7 µM | 20.7 µM | 24.5 µM |  |  |  |  |  |  |  |  |  |
| COc1cc2c(cc1OC)C(=O)/C(=C/c1cc(C)cc(C)c1)C2 | > 44.6 µM | 48 µM | 2.14 µM | > 42.4 µM | 13.5 µM | > 100 µM | > 100 µM | > 42.6 µM | > 100 µM | > 100 µM |  |  |  |  |  |  |  |  |  |
| COC(=O)C1OC(O[C@H]2CC[C@]3(C)[C@H]4CC=C5[C@@H]6CC(C)(C)CC[C@]6(C(=O)OC6OCC(O)C(O)C6OC6OC(C)C(OC7OCC(O)C(O)C7O)C(OC7OCC(O)(CO)C7O)C6O)[C@H](O)C[C@@]5(C)[C@]4(C)CC[C@H]3C2(C)C)C(O)C(O)C1O (stereo not given in full) | 20 µM | 3.3 µM | 3.79 µM | 27.1 µM | 9.49 µM | 7.41 µM | 17.4 µM | > 31.1 µM | 29.4 µM | 4.62 µM |  |  |  |  |  |  |  |  |  |
| O=C1CSC(c2cccc(Cl)c2)N1c1ccc(-c2ccc(-n3c(-c4ccccc4)nc4ccccc4c3=O)cc2)cc1 (stereo not given) | > 100 µM | > 100 µM | > 100 µM | > 100 µM | > 100 µM | > 100 µM | > 100 µM | > 100 µM | > 100 µM | 84.1 µM |  |  |  |  |  |  |  |  |  |
| O=C(O)/C=C/c1ccc2c(c1)CC1(Cc3ccccc3C1)C2 | > 100 µM | > 100 µM | > 100 µM | > 100 µM | > 100 µM | > 100 µM | > 100 µM | > 100 µM | > 100 µM | > 100 µM |  |  |  |  |  |  |  |  |  |
| O=C(Nc1ccc(S(=O)(=O)/N=c2\ncccn2C(=O)C(C(F)(F)F)C(F)(F)F)cc1)C(C(F)(F)F)C(F)(F)F | > 100 µM | > 100 µM | > 100 µM | > 100 µM | > 100 µM | > 100 µM | > 100 µM | > 100 µM | > 100 µM |  |  |  |  |  |  |  |  |  |  |
